{
  "source": "paper PMC11724075",
  "about": "“Small-molecule-induced ERBB4 activation to treat heart failure” (Nature Communications, 2025)",
  "key": {"ERBB4/ERBB4": {"biological_target": "T1, ERBB4/ERBB4 (Homo sapiens, UniProt Q15303)", "T1 construct": "host or cells: U2OS (osteosarcoma cells), PathHunter engineered line", "experiment": "PathHunter U2OS ERBB4/ERBB4 dimerization assay, 96-well dose-response", "type": "cell-based", "conditions": "for ERBB4/ERBB4 dimerization signal: relative to signal with 0.1 µM NRG1, single biological replicates", "method": "PathHunter U2OS ERBB4/ERBB4 (osteosarcoma cells; Eurofins, 93-0961C3), U2OS ERBB2/ERBB4 (osteosarcoma cells; Eurofins, 493-0960C3), ERBB2/ERBB3 (osteosarcoma cells; Eurofins, 93-1042C3) and ERBB1/ERBB1 (osteosarcoma cells; Eurofins, 93-0989C3) dimerization cell lines were cultured according to the manufacturer’s instructions. Briefly, cells were cultured in Cell Culture Reagent 103 (Eurofins, 92-3103 G) supplemented with 250 µg/mL Hygromycin B (Eurofins, 92-0029) and 500 µg/mL G418 (Eurofins, 92-0030), and were maintained at 37 °C in humidified atmosphere of 5% CO2. HCFs (Innoprot, P10454) were cultured in fibroblast medium (Innoprot, P60108) supplemented with 10% (v/v) fetal bovine serum (FBS, Innoprot), 10% (v/v) fibroblast growth supplement (Innoprot), and 1% (v/v) penicillin/streptomycin solution (Innoprot). iAMs[33] (kindly provided by LUMC) were cultured in Advanced DMEM F-12 (Thermo Fisher Scientific, 12634028) supplemented with 2% (v/v) heat-inactivated FBS (Thermo Fisher Scientific, 10270106), 1% (v/v) penicillin/streptomycin (10,000 units/mL and 10 mg/mL respectively, Thermo Fisher Scientific, 15140122), 1× GlutaMAX (Thermo Fisher Scientific, 35050061), and 100 ng/mL doxycycline (Tocris, 4090) for proliferation. To induce differentiation, iAMs were transferred to medium without doxycycline.\nU2OS ERBB4/ERBB4 dimerization cells were seeded at a density of 5 × 10^4 cells/well in 100 µL Cell Plating 0 Reagent, in white 96-well plates (PerkinElmer, 6005680) and incubated for 24 h at 37 °C, 5% CO2. […] Next, 110 µL PathHunter Flash Detection Reagent was added to each well and incubated at RT for 1 h after which the luminescence signal was measured using the Luminoskan Ascent (Thermo Fisher Scientific). […] The same experimental set-up was used for the U2OS ERBB2/ERBB4, U2OS ERBB2/ERBB3 and U2OS ERBB1/ERBB1 dimerization cell lines.\nCategory Parameter Description\nAssay Type of assay PathHunter Dimerization assays provide a robust, highly sensitive and easy-to-use cell-based functional assay to study various protein activities in a cell. The assay s use\nEnzyme Fragment Complementation technology, where the b-galactosidase (b-gal) enzyme is split into two fragments, ProLink and Enzyme Acceptor. Independently these fragments have no b-gal activity. However, when forced to complement through protein-protein interactions, they form an active b-gal enzyme. The PathHunter Dimerization assay detects ligand induced dimerization of two subunits of a receptor-dimer pair. The cells have been engineered to co-express one receptor subunit (ERBB4) fused to Enzyme\nDonor, and a second dimer partner (ERBB4) fused to Enzyme Acceptor. Binding of an agonist to one receptor subunit induces it to interact with its dimer partner, forcing complementation of the two enzyme […]\nfunctional enzyme that hydrolyzes a substrate to generate a chemiluminescent signal.\nTarget ErbB4 receptor (RTK receptor)\nPrimary measurement Detection of chemiluminescent signal, induced by small-molecule ErbB4 agonists\nKey reagents PathHunter Dimerization ErbB4/ErbB4 Cell\nLine (93-0961C3) - PathHunter Flash\nDetection Kit (03 -0247) - AssayComplete Cell\nAssayComplete Cell Detachment Reagent\n(92-0009) - AssayComplete Thawing Reagent\nT3 (92-4103TR) - AssayComplete Freezing\nAssay protocol https://www.discoverx.com/catalog/pathhun"}, "HCFs": {"system": "HCFs", "experiment": "In vitro collagen expression: COL3A1 mRNA in HCFs stimulated with TGF-β1", "type": "cell-based, human", "conditions": "for COL3A1 mRNA expression (FC): TGF-β1 10 ng/mL, 24 h, single replicates", "method": "HCFs were seeded at a density of 1.5 ×10^5 cells/well in doxycycline-free medium in 12-well plates (Greiner Bio-One, 665180) and incubated overnight. […] Compounds were pre-incubated for 10 min before addition of TGF-β1.\nRNA was extracted using Nucleospin RNA XS (Macherey-Nagel, 740902.50) according to the manufacturer’s instructions. For cDNA synthesis, total RNA was added to a mixture containing buffer with random hexamers and reverse transcriptase enzyme (TaqMan reverse transcription reagents, Applied biosystems, N8080234) after which samples were incubated for 10 min at 25 °C, 30 min at 48 °C, and 5 min at 95 °C. RT-qPCR was performed on QuantStudio 3 Real-time PCR system (Applied Biosystems) using Taqman Universal PCR Master Mix (Applied Biosystems, 4304437) and Taqman primers according to the manufacturer’s instructions. Settings were as follows: […] followed by 10 min at 95 °C, 40 cycles (45 cycles for ERBB4) of denaturation at 95 °C for 15 s, and 1 min at 60 °C. All reactions were run in duplicate, and all data were normalized against housekeeping genes glyceraldehyde-3-phosphate dehydrogenase (GAPDH), beta-actin (ACTB), or phosphoglycerate kinase 1 (PGK1). Expression levels were calculated using the comparative cycle method and expressed as fold change (FC) to appropriate controls. The following TaqMan primers were used (Thermo Fisher Scientific): GAPDH (Hs02758991_g1, Mm99999915_g1 and Rn01775763_g1), PGK1 (Hs99999906_m1), ID2 (Hs04187239_m1), BMPR1B (Hs01010965_m1), CACNA2D4 (Hs00297782_m1), DUSP2 (Hs00358879_m1), NR4A1 (Hs00374226_m1), SGK1 (Hs00178612_m1), COL1A1 (Mm00801666_g1), COL3A1 (Hs00943809_m1 and Mm00802305_g1), ERBB4 (Hs00955525_m1 and Rn00572447_m1), ACTB (Mm02619580_g1) and ANP (Mm01255747_g1)."}, "iAMs": {"system": "iAMs", "experiment": "H2O2-induced cell death assay in iAMs (Toxilight), also with LY294002", "conditions": "for total cell death of iAMs (percentage of total dead cells): H2O2 100 µM, 4 h; for total cell death of iAMs (percentage of total dead cells) / total cell death of iAMs: single replicates"}},
  "note": "Several values for one entry are separate records, joined by “and”; a condition that tells them apart may be missing. Identical values can stand only once.",
  "data": [
    {"smiles": "O=C(NC1CC1)C(Sc1nc2ccccc2c(=O)n1C1CCCC1)c1ccccc1", "note": "(stereo not drawn) [EF-1]", "values": [
      {"measurement": "ERBB4/ERBB4 dimerization signal", "setting": "ERBB4/ERBB4; 3.125e-8 M", "result": 0},
      {"measurement": "ERBB4/ERBB4 dimerization signal", "setting": "ERBB4/ERBB4; 6.25e-8 M", "result": "-1.6 and -0.07 and 2.169 and 1.573"},
      {"measurement": "ERBB4/ERBB4 dimerization signal", "setting": "ERBB4/ERBB4; 1.25e-7 M", "result": "-0.55 and -0.15 and 2.599 and 0.9551"},
      {"measurement": "ERBB4/ERBB4 dimerization signal", "setting": "ERBB4/ERBB4; 2.5e-7 M", "result": "-1.94 and 0.74 and 2.315 and -0.7582"},
      {"measurement": "ERBB4/ERBB4 dimerization signal", "setting": "ERBB4/ERBB4; 5e-7 M", "result": "-0.55 and 0.26 and 2.323 and -0.4275"},
      {"measurement": "ERBB4/ERBB4 dimerization signal", "setting": "ERBB4/ERBB4; 1e-6 M", "result": "-2 and 0.47 and 4.362 and -0.05827"},
      {"measurement": "ERBB4/ERBB4 dimerization signal", "setting": "ERBB4/ERBB4; 2e-6 M", "result": "1.2 and 2.97 and 7.682 and 3.162"},
      {"measurement": "ERBB4/ERBB4 dimerization signal", "setting": "ERBB4/ERBB4; 4e-6 M", "result": "7.41 and 5.76 and 13.8923 and 7.932"},
      {"measurement": "ERBB4/ERBB4 dimerization signal", "setting": "ERBB4/ERBB4; 8e-6 M", "result": "16.72 and 8.19 and 23.4633 and 9.465"},
      {"measurement": "ERBB4/ERBB4 dimerization signal", "setting": "ERBB4/ERBB4; 1.6e-5 M", "result": "24.8 and 17.62 and 27.6207 and 19.8392"},
      {"measurement": "ERBB4/ERBB4 dimerization signal", "setting": "ERBB4/ERBB4; 3.2e-5 M", "result": "30.57 and 22.84 and 33.2287 and 25.0905"},
      {"measurement": "Emax, maximum response relative to NRG1", "setting": "ERBB4/ERBB4; % of the effect of NRG1", "result": "27.9 ± 4.8", "unit": "%"},
      {"measurement": "COL3A1 mRNA expression (FC)", "setting": "HCFs; EF-1 + SiERBB4, 1e-6 M", "result": 1},
      {"measurement": "COL3A1 mRNA expression (FC)", "setting": "HCFs; EF-1 + SiERBB4, 4e-6 M", "result": "0.5373 and 0.7163 and 0.5917 and 0.6311 and 0.7899 and 0.8499"},
      {"measurement": "COL3A1 mRNA expression (FC)", "setting": "HCFs; EF-1 + SiERBB4, 8e-6 M", "result": "0.8243 and 0.8469 and 0.7111 and 0.7439 and 0.7398 and 0.6183"},
      {"measurement": "COL3A1 mRNA expression (FC)", "setting": "HCFs; EF-1 + SiERBB4, 1.6e-5 M", "result": "0.5202 and 0.6505 and 0.7517 and 0.6477 and 0.5129"},
      {"measurement": "COL3A1 mRNA expression (FC)", "setting": "HCFs; EF-1 + SiERBB4, 3.2e-5 M", "result": "0.7721 and 0.6715 and 0.5121 and 0.7108 and 0.5403 and 0.6885"},
      {"measurement": "COL3A1 mRNA expression (FC)", "setting": "HCFs; EF-1 + SiScr, 1e-6 M", "result": "0.9505 and 1.0731 and 0.9765"},
      {"measurement": "COL3A1 mRNA expression (FC)", "setting": "HCFs; EF-1 + SiScr, 4e-6 M", "result": "0.3565 and 0.5152 and 0.404"},
      {"measurement": "COL3A1 mRNA expression (FC)", "setting": "HCFs; EF-1 + SiScr, 8e-6 M", "result": "0.4855 and 0.3848 and 0.5526"},
      {"measurement": "COL3A1 mRNA expression (FC)", "setting": "HCFs; EF-1 + SiScr, 1.6e-5 M", "result": "0.2758 and 0.3929 and 0.4764"},
      {"measurement": "COL3A1 mRNA expression (FC)", "setting": "HCFs; EF-1 + SiScr, 3.2e-5 M", "result": "0.4172 and 0.4035 and 0.5599"},
      {"measurement": "decrease of TGF-β1-induced COL3A1 mRNA levels", "setting": "HCFs; HCFs, dose-dependent, 4–32 µM", "result": "up to 50%"},
      {"measurement": "total cell death of iAMs (percentage of total dead cells)", "setting": "iAMs; EF-1 + SiERBB4, 1e-6 M", "result": "68.0221 and 60.0225 and 62.2886"},
      {"measurement": "total cell death of iAMs (percentage of total dead cells)", "setting": "iAMs; EF-1 + SiERBB4, 4e-6 M", "result": "72.51 and 56.29 and 70.83"},
      {"measurement": "total cell death of iAMs (percentage of total dead cells)", "setting": "iAMs; EF-1 + SiERBB4, 8e-6 M", "result": "69.73 and 50.25 and 72.39"},
      {"measurement": "total cell death of iAMs (percentage of total dead cells)", "setting": "iAMs; EF-1 + SiERBB4, 1.6e-5 M", "result": "67.67 and 53.83 and 80.13"},
      {"measurement": "total cell death of iAMs (percentage of total dead cells)", "setting": "iAMs; EF-1 + SiERBB4, 3.2e-5 M", "result": "64.65 and 55.01 and 72.56"},
      {"measurement": "total cell death of iAMs (percentage of total dead cells)", "setting": "iAMs; EF-1 + SiScr, 1e-6 M", "result": "62.2886 and 68.0221 and 60.0225"},
      {"measurement": "total cell death of iAMs (percentage of total dead cells)", "setting": "iAMs; EF-1 + SiScr, 4e-6 M", "result": "34.38 and 49.85 and 69.84"},
      {"measurement": "total cell death of iAMs (percentage of total dead cells)", "setting": "iAMs; EF-1 + SiScr, 8e-6 M", "result": "29.53 and 51.53 and 63.09"},
      {"measurement": "total cell death of iAMs (percentage of total dead cells)", "setting": "iAMs; EF-1 + SiScr, 1.6e-5 M", "result": "23.16 and 29.77 and 55.38"},
      {"measurement": "total cell death of iAMs (percentage of total dead cells)", "setting": "iAMs; EF-1 + SiScr, 3.2e-5 M", "result": "15.16 and 25.21 and 30.15"},
      {"measurement": "total cell death of iAMs", "setting": "iAMs; H2O2/EF-1 (32 µM) + LY294002 (20 µM, 10 min pretreatment)", "result": "37.778 and 30.0948 and 30.3358 and 33.2686"},
      {"measurement": "total cell death of iAMs", "setting": "iAMs; H2O2/EF-1 (32 µM), without LY294002", "result": "27.2571 and 19.0561 and 18.1394 and 25.7513"},
      {"measurement": "decrease of H2O2-induced cardiomyocyte cell death", "setting": "iAMs; at its highest dose", "result": "more than 75%"}
    ]}
  ]
}
